According to publication PMC11893521, “Examining Farnesyltransferase Interaction With Cell‐Permeable CaaX Peptides and the Role of the CaaX Motif in Biological Activity” (Journal of Peptide Science, 2025):
Peptide text beside a SMILES is read from it.

Assays:
[1] = tested on: HeLa cells; test: Resazurin-based cytotoxicity assay; assay type: cell-based; details: serum-free medium, 24 h, triplicate (n = 3)
Protocol: Cytotoxicity of the peptides to HeLa cells were investigated using a resazurin‐based cytotoxicity assay (Sigma Aldrich). For this, 14,000 HeLa cells were seeded in a 96‐well plate and grown in complete medium at 37°C to 80%–90% subconfluency. Cells were treated with different peptide dilutions in serum‐free medium at 37°C for 24 h. Untreated cells served as negative control and cells treated with 70% ethanol for 10 min as positive control. Cells were washed with PBS and subsequently incubated with a 10% resazurin solution in serum‐free medium for ~1 h. To determine the viability of the cells, the fluorescence was measured at 595 nm after excitation at 550 nm using a Tecan infinite M200 plate reader.

[2] = biological target: T1, rFTase (Rattus norvegicus, UniProt Q02293+Q04631); test: Mass spectrometry-based farnesylation assay (rFTase); assay type: biochemical; details: each peptide 18 h at 37°C with rFTase and FPP, LC-ESI-MS
T1 construct: purchased Jena Bioscience PR-102
Protocol: […] CaaX‐1 or scrambled control was incubated with 50‐nM recombinantly expressed hFTase or rFTase (Jena Bioscience, Cat#PR‐102) and 10‐μM farnesyl pyrophosphate (FPP) in reaction buffer (50‐mM Tris HCl pH 7.5, 5‐mM DTT, 5‐mM MgCl2, 10‐μM ZnCl2, and 0.2% n‐octyl‐beta‐D‐glucopyranoside) at 37°C for 18 h. Afterwards, the reaction mixture was desalted via C18 ZipTips (Merck Millipore). For this, ZipTips were washed with ACN and equilibrated in 0.1% FA in H2O. Then, the column was loaded with the reaction solution and subsequently washed with 0.1% FA in H2O and 5% MeOH in H2O each supplemented with 0.1% FA. Elution was performed using 50% ACN with 0.1% FA, and the eluted solution was analyzed by RP‐HPLC using a linear gradient of 10%–60% ACN in H2O with 0.1% FA or TFA using a flow rate of 0.6 or 1.0 mL/min, respectively, and by ESI‐MS analysis (LTQ‐XL, Thermo Scientific, Waltham, Massachusetts, USA).

Row | SMILES | cytotoxicity to HeLa cells at 100 μM [1] | farnesylation by rFTase (CaaX-1 versus scrambled controls) [2]
1 | CC[C@H](C)[C@H](NC(=O)[C@H](CS)NC(=O)[C@H](CCCCN)NC(=O)[C@H](CCCCN)NC(=O)[C@H](CC(N)=O)NC(=O)[C@H](CCCNC(=N)N)NC(=O)[C@H](Cc1ccccc1)NC(=O)[C@H](CCCCN)NC(=O)[C@H](CCCNC(=N)N)NC(=O)[C@H](CC(C)C)NC(=O)[C@H](CCCNC(=N)N)NC(=O)[C@H](CCCCN)NC(=O)[C@H](CCCNC(=N)N)NC(=O)[C@H](CC(C)C)NC(=O)CN)C(=O)N[C@@H](CCCCN)C(=O)N[C@H](C(=O)N[C@@H](CCSC)C(=O)N[C@H](C(=O)N[C@@H](CO)C(=O)O)[C@@H](C)O)C(C)C [CaaX‐1hscr] (H-GLRKRLRKFRNKKCIKVMTS-OH) | slight toxicity | lack of catalytic conversion
2 | CC[C@H](C)[C@H](N)C(=O)N[C@H](C(=O)N[C@@H](Cc1ccccc1)C(=O)N[C@@H](CCCNC(=N)N)C(=O)N[C@@H](CCCCN)C(=O)N[C@@H](CCCCN)C(=O)N[C@@H](CC(C)C)C(=O)N[C@@H](CCCNC(=N)N)C(=O)N[C@@H](CCCCN)C(=O)N[C@@H](CCCCN)C(=O)N[C@@H](CS)C(=O)N[C@@H](CO)C(=O)N[C@@H](CCCCN)C(=O)NCC(=O)N[C@@H](CC(C)C)C(=O)N[C@H](C(=O)N[C@@H](CCCNC(=N)N)C(=O)N[C@@H](CCCNC(=N)N)C(=O)N[C@@H](CC(N)=O)C(=O)N[C@@H](CCSC)C(=O)O)C(C)C)[C@@H](C)O [scrCaaX‐1] (H-ITFRKKLRKKCSKGLVRRNM-OH) | – | lack of catalytic conversion
